Experimental data published in patent publication US20070265341A1, “COMPOSITIONS AND METHODS FOR TREATING EYE DISORDERS AND CONDITIONS” (The Schepens Eye Research Institute Inc., priority 2004, published 2007).
Where two headings read alike, the source gives them in different places.

Key:
IL-1α = assay: Real time PCR of cytokine transcripts in dry eye cornea and conjunctiva; format: in vivo, mouse
Text: (§1) Corneal and conjunctival expression of pro-inflammatory cytokines IL-1α and TNF-α Th1 cytokines (IL-2 and IFN-γ) and Th2 cytokines (IL-4, IL-6 and IL-10), relative to the normal eyes, was studied using quantitative real time PCR. Total RNA was isolated from the whole mount corneal and conjunctival tissues (two pooled corneas per group and six pooled conjunctivae per group). A combined method of total RNA isolation was employed, using Trizol (Invitrogen, CA, catalog #15596-026) for tissue homogenization on ice, precipitation of RNA in the aqueous phase in 70% ethanol followed by subsequent extraction and purification using RNeasy Microkit (Qiagen, CA, catalogue # 74004). Isolated RNA was stored at −80° C. until future use.
(§2) The first strand cDNA was synthesized from 300 ng of total RNA with random hexamers using SuperScript™ III Reverse Transcriptase (Invitrogen, CA, Catalogue #18080) according to the manufacturer's protocol. Real-time PCR was performed with FAM-MGB dye labeled pre-designed primers (Applied Biosystems, CA) for IL-1-α (catalogue # 4329586), TNF-α (Assay ID Mm99999068_ml) and GAPDH (Assay ID Mm99999915_g1), IL-2 (Assay ID […]), IL-4 (Assay ID Mm00445259), IL-6 (Assay ID Mm00446190_ml), IL-10 (Mm00439616_ml), IFN-γ (Assay ID Mm00801778 ml) according to manufacturer's recommendations. 1 ul of cDNA was loaded in each well and assays were performed in duplicates. A nontemplate control was included in all the experiments to evaluate DNA contamination of the isolated RNA and the reagents used. The results of quantitative real-time PCR were analyzed by the comparative threshold cycle (CT) method and normalized by GAPDH as an internal control. The relative expression of cytokines at different times points was compared using one way ANOVA, post hoc test LSD with p<0.05 deemed significant.
(§3) Six to 10 week old C57BL/6 mice (Taconic Farms, German-town, NY) were used. The protocol was approved by the Schepens Eye Research Institute Animal Care and Use Committee, and all animals were treated according to the ARVO Statement for the Use of Animals in Ophthalmic and Vision Research. Dry eye was induced by placement of mice in a CEC as described above, modified with subcutaneous (“SQ”) administration of scopolamine to lead to maximal ocular dryness (Barabino S, Shen L, Chen L, Rashid S, Rolandao M, Dana M R. The controlled-environment chamber: a new mouse model of dry eye. Invest Opthalmol Vis Sci. 2005; 46: 2766-71). Briefly, 0.5 mg/0.2 ml of scopolamine hydrobromide (Sigma-Aldrich, St. Louis, Mo.) was injected SQ in the dorsal skin of mice at 9 am, 12 pm, and 3 pm; the overnight dose at 6 pm was increased to 0.75 mg/0.3 ml. The mice were placed in the CEC where they were continuously exposed to a relative humidity (RH) of <30%, airflow of 15 litres/minute and a constant temperature of 21-23° C. as described previously (Barabino et al, 2005). Dry eye was induced for variable lengths of time, ranging from 2-10 days. Age-matched mice were used as normal controls (RH>80%, no airflow and temperature 21-23° C., no scopolamine administration).
(§4) Forty eight hours after dry eye induction, each eye was randomized to receive one of the formulations, or the vehicle. A 1 ul eye drop was applied topically to the eye of unanaesthetized mouse once daily, from 48 hours to day 4 (total 3 doses) or to day 9 (total 8 doses) depending on the time point studied. The untreated group received no eye drops. Ocular signs of dry eye were measured 24 hours after the last dose (day 5 or day 10) following which mice were euthanized for cellular and molecular studies.

TNF-α = assay: as above; format: in vivo, mouse
Text: as §1, §2, §3, §4

C57BL/6 mice = assay: Corneal fluorescein staining (NEI grading), dry eye model (CEC + SQ scopolamine); format: in vivo, mouse
Method: Six to 10 week old C57BL/6 mice (Taconic Farms, German-town, NY) were used. The protocol was approved by the Schepens Eye Research Institute Animal Care and Use Committee, and all animals were treated according to the ARVO Statement for the Use of Animals in Ophthalmic and Vision Research. […] The controlled-environment chamber: a new mouse model of dry eye. […] Louis, Mo.) was injected SQ in the dorsal skin of mice at 9 am, 12 pm, and 3 pm; the overnight dose at 6 pm was increased to 0.75 mg/0.3 ml. The mice were placed in the CEC where they were continuously exposed to a relative humidity (RH) of <30%, airflow of 15 litres/minute and a constant temperature of 21-23° C. as described previously (Barabino et al, 2005). Dry eye was induced for variable lengths of time, ranging from 2-10 days. […] Formulations tested included a) 0.2% alpha-linolenic acid (ALA, n-3); b) 0.2% linoleic acid (LA, n-6); and c) 0.1% ALA: 0.1% LA (1:1 ratio of n3:n6, total amount of fatty acid being same as in individual fatty acid formulations). […] Forty eight hours after dry eye induction, each eye was randomized to receive one of the formulations, or the vehicle. A 1 ul eye drop was applied topically to the eye of unanaesthetized mouse once daily, from 48 hours to day 4 (total 3 doses) or to day 9 (total 8 doses) depending on the time point studied. The untreated group received no eye drops. Ocular signs of dry eye were measured 24 hours after the last dose (day 5 or day 10) following which mice were euthanized for cellular and molecular studies. […] Eyes were flushed by sterile PBS to remove excess fluorescein at 3 minutes, and examined with a slit lamp biomicroscope in cobalt blue light. Punctate staining was recorded in a masked fashion with a standardized (National Eye Institute) grading system of 0 to 3 for each of the five areas in which the corneal surface was divided. […] Kruskal Wallis and Mann Whitney tests (unpaired data set), and Wilcoxin test (paired data set) were used for statistical analysis.

Balb/c mice [1] = assay: Cotton thread test of tear production, dry eye model (CEC + scopolamine patch); format: in vivo, mouse; conditions: Scop patch alone for 6 days, Day 3 and Day 6
Text: (§5) Normal healthy 6 to 10 weeks old female Balb/c mice (Taconic Farms, German-town, NY) can be induced to have dry eye by continuously exposing them to dry environment in a controlled environmental chamber (CEC), described below. Mice in CEC were continuously exposed throughout the duration of the experiments, to low relative humidity of less than 30% (mean and standard deviation 19%±4%), high airflow (15 liters/minute) and constant temperature (21-23 Celsius). Mice in normal cages were exposed to relative humidity over 70% (mean and SD 78%±5%), no airflow and same temperature. In addition, the mice placed in CEC were also treated with scopolamine, active agent that causes pharmacological inhibition of tear secretion. The combination of CEC and scopolamine produces severe dry eye. […]
Tear production was measured with cotton thread test, impregnated with phenol red (Zone-Quick, Lacrimedics, Eastsound, Wash.). […] The tear distance in mm is read under a microscope (Zeiss S4, West Germany) using the scale of an hemacytometer. Tear secretion was measured in three groups of mice (FIG. 1). […]
(§6) Dry eye was induced by combined environmental and pharmacological effect (placing the mice in CEC and applying scopolamine patch for 6 days). […] Signs of dry eye were assessed at the end of Day 6, twelve hours after the last dose. […] […]

Balb/c mice [2] = assay: Corneal fluorescein staining (NEI grading), dry eye model (CEC + scopolamine patch); format: in vivo, mouse; conditions: scopolamine alone, Day 3 and Day 6
Text: as §5, with “secretion.” for “secretion. The combination of CEC and scopolamine produces severe dry eye.”
The cornea was examined with a slit lamp biomicroscope using cobalt blue light 3 minutes after the fluorescein instillation. Punctuate staining was recorded in a masked fashion using a standardized National Eye Institute (NEI) grading system of 0-3 for each of the five areas in which the corneal surface has been divided (FIG. 2). […]
as §6

## CCCCC/C=C\C/C=C\CCCCCCCC(=O)O [LA, 9,12-octadecandienoic acid]
IL-1α; cornea and conjunctiva
  IL-1α expression, between untreated, vehicle and treated eyes: No significant difference
TNF-α; cornea and conjunctiva
  TNF-α expression, between untreated, vehicle and treated eyes: No significant difference
C57BL/6 mice; day 5
  corneal fluorescein staining scores compared to vehicle-treated eyes: no significant difference
C57BL/6 mice; day 10
  corneal fluorescein staining scores compared to vehicle and untreated eyes: no difference

## CCC=CCC=CCC=CCCCCCCCC(=O)O [ALA, 9, 12, 15 octadecatrienoic acid]
IL-1α; conjunctiva, day 10
  conjunctival IL-α expression: downward trend
IL-1α; cornea, day 10
  corneal IL-1α expression compared to untreated corneas: significant decrease
TNF-α; conjunctiva, day 10
  conjunctival expression of TNF-α compared to untreated eyes: significantly decreased
TNF-α; cornea, day 5
  corneal TNF-α expression compared to untreated and vehicle-treated corneas: significant decrease
TNF-α; cornea, day 10
  corneal TNF-α expression: decreased trend
CD11b+ cells; center of cornea, day 10
  decrease in CD11b+ cell number compared to the untreated group: 42%
  decrease in CD11b+ cell number compared to the vehicle: 37%
  number of CD11b+ cells compared to untreated, vehicle, LA and combined groups: significantly decreased
CD11b+ cells; center of whole mount cornea, confocal images
  number of CD11b+ cells relative to normal (non dry eye induced) cornea: comparable to the normal
CD11b+ cells; periphery of cornea, day 10
  CD11b+ cell number compared to untreated eyes: significant decrease
  CD11b+ cell number compared to vehicle: no significant difference
  decrease in CD11b+ cell number compared to the untreated group: 37%
  decrease in CD11b+ cell number compared to the vehicle: 21%
C57BL/6 mice; day 5, once daily drop from 48 hours
  decrease in corneal fluorescein staining scores compared to the vehicle: 45%
C57BL/6 mice; day 10
  decrease in corneal fluorescein staining scores compared to the vehicle: 62%
  decrease in corneal fluorescein staining scores compared to untreated control eyes: 71%

## CN1[C@@H]2C[C@@H](OC(=O)[C@H](CO)c3ccccc3)C[C@H]1[C@@H]1O[C@@H]12 [Scop patch, scopolamine]
Balb/c mice [1]
  tear secretion compared to the baseline: markedly decreased
Balb/c mice [2]
  corneal fluorescein staining compared to the controls: significant increase
